Assay results as given in PubChem BioAssay (NCI).
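In this assay, cells in 96-well plates receive the compound at five concentrations for 48 hours. Endpoints are linearly interpolated between the surrounding concentrations. Definition used: TGI = concentration required for complete inhibition of growth.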

What was measured:
Experiment in all cases: NCI-60 cell line screen, 48 h
[1] = test system: EKVX NSCLC
[2] = test system: OVCAR-3 ovarian
[3] = test system: OVCAR-4 ovarian
[4] = test system: SK-MEL-2 melanoma
[5] = test system: HT29 colon
[6] = test system: RXF 393 renal
[7] = test system: SK-OV-3 ovarian
[8] = test system: HCT-15 colon
[9] = test system: SR leukemia
[10] = test system: UACC-62 melanoma
[11] = test system: HOP-92 NSCLC
[12] = test system: MDA-MB-435
[13] = test system: U251 CNS
[14] = test system: NCI-H23 lung
[15] = test system: 786-0 renal
[16] = test system: MCF7 breast
[17] = test system: COLO 205 colon
[18] = test system: T-47D breast
[19] = test system: OVCAR-8 ovarian
[20] = test system: SNB-75 CNS

Compound | TGI [1] | TGI [2] | TGI [3] | TGI [4] | TGI [5] | TGI [6] | TGI [7] | TGI [8] | TGI [9] | TGI [10] | TGI [11] | TGI [12] | TGI [13] | TGI [14] | TGI [15] | TGI [16] | TGI [17] | TGI [18] | TGI [19] | TGI [20]
COc1ccc(N=NN2CCCC2)cc1 | 58.8 µM | 43.8 µM | 43.6 µM | > 100 µM | > 100 µM | 64.1 µM | > 100 µM | 60.7 µM | > 100 µM | > 100 µM | 42.4 µM | > 100 µM | > 100 µM | > 100 µM | 32.7 µM | 78 µM | 35.5 µM | 49.2 µM |  | 
CC(C)(C)NNc1c([N+](=O)[O-])cnn(-c2ccccc2)c1=O | 25.6 µM | 5.54 µM | 6.61 µM |  | 7.43 µM | 18.1 µM | 16 µM | 10.1 µM | 4.67 µM | 9.39 µM | 12.3 µM | 3.27 µM | 8.05 µM | 11.1 µM | 13.4 µM | 14.1 µM | 12.6 µM | 4.36 µM | 4.74 µM | 23.8 µM
CCCCCCc1cc(C=O)sc1-c1ccc(-c2sc(-c3ccc(-c4ccc(-c5cc(CCCCCC)c(-c6ccc(-c7sc(C=O)cc7CCCCCC)s6)s5)s4)s3)cc2CCCCCC)s1 | > 100 µM | > 100 µM | > 100 µM | > 100 µM | > 100 µM | > 100 µM | > 100 µM | > 100 µM | > 100 µM | > 100 µM | > 100 µM | > 100 µM | > 100 µM | > 100 µM | > 100 µM | > 100 µM | > 100 µM | > 100 µM | > 100 µM | 
COc1ccc(OC)c2c1C[C@@H]1C(C#N)N3[C@H](Cc4c(OC)ccc(OC)c4[C@@H]3C)C(=O)N1[C@H]2C (some centres undefined) | 20.5 µM | 5.2 µM | 16.4 µM | 5.2 µM | 30.4 µM | 3.44 µM | 29.4 µM | 11.2 µM | 9.12 µM | 6.52 µM | 5.37 µM | 14 µM | 4.91 µM | 19.6 µM | 7.72 µM | 17.5 µM | 3.52 µM | 15.1 µM | 9.93 µM | 5.02 µM
Brc1ccc(-c2ccc(-c3ccc(Br)s3)s2)s1 | > 100 µM | > 100 µM | > 100 µM | > 100 µM | > 100 µM | > 100 µM | > 100 µM | > 100 µM | > 100 µM | > 100 µM | > 100 µM | > 100 µM | > 100 µM | > 100 µM | > 100 µM | > 100 µM | > 100 µM | > 100 µM | > 100 µM | > 100 µM
Cc1cc(SCC(=O)c2ccc(Br)cc2)cc(C)[o+]1 | 39.9 µM | 49.8 µM | 83.7 µM | 76 µM | 65.2 µM | 62 µM | > 100 µM | > 100 µM | > 100 µM | > 100 µM | 74.8 µM | 51.3 µM | 90 µM | > 100 µM | > 100 µM | 38.2 µM | 83.7 µM | 48.8 µM | > 100 µM | 56.9 µM
CC1(C(O)c2ccccc2)CN(C(C)(C)C)C(=O)/C1=C\Sc1ccccc1 (centres undefined) | > 100 µM | > 100 µM | > 100 µM | > 100 µM | 79.8 µM |  | > 100 µM | > 100 µM | > 100 µM | > 100 µM | 21.7 µM | > 100 µM | > 100 µM | > 100 µM | > 100 µM | > 100 µM | 50.7 µM | > 100 µM | > 100 µM | 
Cc1[nH]n(C(=O)c2ccccc2O)c(=O)c1/C=C1\C(=O)C=Cc2ccccc21 | 19.4 µM | 1.2 µM |  | 17.2 µM | > 81 µM | 18.8 µM | 22.1 µM | > 100 µM | > 100 µM | 2.36 µM | 28.7 µM | 79.7 µM | 40.7 µM | 9.99 µM | 10.1 µM | 15.1 µM | 13.1 µM | > 100 µM | 28.5 µM | 10.4 µM
COc1ccc2c(c1)CC[C@@H]1C2CC[C@]2(C)OC(=O)CCC12 (some centres undefined) | 21.3 µM | 31.4 µM | 28.1 µM | 66.5 µM | 59.2 µM | 29 µM | > 100 µM | > 100 µM | > 100 µM | > 100 µM | 40.6 µM | > 100 µM | 21 µM | 38.4 µM | 17.7 µM | 35.2 µM | > 100 µM | > 100 µM | 28.4 µM | 
COC(=O)c1c(C)nc(C)c(N=O)c1-c1ccccc1C(F)(F)F | > 100 µM | 31.3 µM | 31.8 µM | > 100 µM | 29.1 µM | 29.7 µM | > 100 µM | 45.8 µM | > 100 µM | > 100 µM | 34.8 µM | 56.3 µM | 34.5 µM | 48.5 µM | 31.5 µM | 40.8 µM | > 100 µM | 39.5 µM | 35.6 µM | 
COC(=O)c1ccc(/C=C/C2=CC(=O)C=CC2=O)cc1 | 47.5 µM | 38.4 µM | 42 µM | > 62.1 µM | 48.9 µM | 42.2 µM |  | 36.8 µM | 12.7 µM | 40.2 µM | 32.7 µM | 44 µM | 41.7 µM | 42.4 µM | 26.1 µM | 27.8 µM | > 52.5 µM | 33.5 µM | 61.5 µM | 99.4 µM
Cc1ccc(Nc2ncnc3sc(SCc4ccccc4)nc23)cc1 | > 100 µM | > 100 µM | > 100 µM | > 100 µM | > 100 µM | > 100 µM | > 100 µM | > 100 µM | > 100 µM |  | > 100 µM | > 100 µM | > 100 µM | > 100 µM | > 100 µM | > 100 µM | > 100 µM | > 100 µM | > 100 µM | > 100 µM
